Source: the supplement of paper PMC4862054

Columns and labels:
BT-474 [1] = conditions: 72 h
Procedure, shortened: (§1)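 Two sequential readouts followed a 72 h incubation of breast cancer cell lines with compound at 5 concentrations in 10-fold steps over a compound-specific 10,000-fold range: CellTox Green fluorescence (485/520 nm) for cell death, then CellTiter-Glo luminescence, after 10 min at room temperature, for viability. Each plate was normalised to 0.1 % DMSO and a positive kill control. Dose-response curves were fitted for EC50, censored at the top concentration.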

BT-549 = conditions: 72 h
Procedure, shortened: as §1

CAL-120 [2] = conditions: 72 h
Procedure, shortened: as §1

CAL-51 [3] = conditions: 72 h
Procedure, shortened: as §1

CAL-85-1 [4] = conditions: 72 h
Procedure, shortened: as §1

HCC1937 [5] = conditions: 72 h
Procedure, shortened: as §1

Hs578T [6] = conditions: 72 h
Procedure, shortened: as §1

MCF-10A = conditions: 72 h
Procedure, shortened: as §1

MDA-MB-231 [7] = conditions: 72 h
Procedure, shortened: as §1

MDA-MB-436 [8] = conditions: 72 h
Procedure, shortened: as §1

MDA-MB-453 [9] = conditions: 72 h
Procedure, shortened: as §1

MDA-MB-468 [10] = conditions: 72 h
Procedure, shortened: as §1

SK-BR-3 = conditions: 72 h
Procedure, shortened: as §1

BT-474 [11] = test: normalised viability (% of control), CellTiter-Blue; higher = more viable cells (about 100 = DMSO control); conditions: incubation time: 72 h
Procedure, shortened: (§2)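 Breast cancer cell lines were treated for 72 h in 384-well format and measured by CellTiter-Blue fluorescence at 560/590 nm. Results were normalised per plate to vehicle (100) and a positive kill control (0). The entry is normalised viability at a single listed concentration of the series.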

CAL-120 [12] = test: as above; conditions: incubation time: 72 h
Procedure, shortened: as §2

CAL-51 [13] = test: as above; conditions: incubation time: 72 h
Procedure, shortened: as §2

CAL-85-1 [14] = test: as above; conditions: incubation time: 72 h
Procedure, shortened: as §2

HCC1599 [15] = test: as above; conditions: incubation time: 72 h
Procedure, shortened: as §2

HCC1937 [16] = test: as above; conditions: incubation time: 72 h
Procedure, shortened: as §2

Hs578T [17] = test: as above; conditions: incubation time: 72 h
Procedure, shortened: as §2

MDA-MB-436 [18] = test: as above; conditions: incubation time: 72 h
Procedure, shortened: as §2

MDA-MB-453 [19] = test: as above; conditions: incubation time: 72 h
Procedure, shortened: as §2

MDA-MB-468 [20] = test: as above; conditions: incubation time: 72 h
Procedure, shortened: as §2

BT-474 [21] = test: as above; conditions: incubation time: 72 h; remark: listed apart in the source
Procedure, shortened: as §2

CAL-51 [22] = test: as above; conditions: incubation time: 72 h; remark: listed apart in the source
Procedure, shortened: as §2

DU-4475 [23] = test: as above; conditions: incubation time: 72 h
Procedure, shortened: as §2

HCC1143 = test: as above; conditions: incubation time: 72 h
Procedure, shortened: as §2

HCC1599 [24] = test: as above; conditions: incubation time: 72 h; remark: listed apart in the source
Procedure, shortened: as §2

HCC1937 [25] = test: as above; conditions: incubation time: 72 h; remark: listed apart in the source
Procedure, shortened: as §2

HDQ-P1 [26] = test: as above; conditions: incubation time: 72 h
Procedure, shortened: as §2

MDA-MB-231 [27] = test: as above; conditions: incubation time: 72 h
Procedure, shortened: as §2

MDA-MB-468 [28] = test: as above; conditions: incubation time: 72 h; remark: listed apart in the source
Procedure, shortened: as §2

CAL-148 = test: normalised viability (% of control), CellTiter-Blue; higher = more viable cells (about 100 = DMSO control); conditions: incubation time: 72 h
Method: (§3)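 DSRT, CellTiter-Blue viability, 72 h incubation. Signal is normalised to DMSO and benzethonium chloride controls. Value is the normalised response at dose 6.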

CAL-51 [29] = test: as above; conditions: incubation time: 72 h; remark: listed apart in the source
Method: as §3

CAL-85-1 [30] = test: as above; conditions: incubation time: 72 h; remark: listed apart in the source
Method: as §3

DU-4475 [31] = test: as above; conditions: incubation time: 72 h; remark: listed apart in the source
Method: as §3

HDQ-P1 [32] = test: as above; conditions: incubation time: 72 h; remark: listed apart in the source
Method: as §3

MDA-MB-453 [33] = test: as above; conditions: incubation time: 72 h; remark: listed apart in the source
Method: as §3

CC[C@]1(O)C[C@H]2CN(CCc3c([nH]c4ccccc34)[C@@](C(=O)OC)(c3cc4c(cc3OC)N(C=O)[C@H]3[C@@](O)(C(=O)OC)[C@H](OC(C)=O)[C@]5(CC)C=CCN6CC[C@]43[C@@H]65)C2)C1 [Vincristine]
Conditions	EC50, CellTiter-Glo [nM]
BT-474 [1]	7.55
BT-549	1.71
CAL-51 [3]	57.3
CAL-85-1 [4]	2.7
CAL-120 [2]	3.26
HCC1937 [5]	2.89
Hs578T [6]	16.2
MCF-10A	2.93
MDA-MB-231 [7]	11.6
MDA-MB-436 [8]	11.6
MDA-MB-453 [9]	6.53
MDA-MB-468 [10]	2.18
SK-BR-3	2.33

Conditions	normalised viability [%]
BT-474 [11], 1000 nM	55.9
BT-474 [11], 10000 nM	47.9
BT-474 [21], 10 nM	46.2
BT-474 [21], 100 nM	57.2
CAL-51 [13], 10 nM	70.6
CAL-51 [13], 100 nM	18
CAL-51 [22], 1 nM	108
CAL-51 [22], 10 nM	87.8
CAL-51 [29], 30 nM	42.3
CAL-51 [29], 300 nM	12.6
CAL-85-1 [14], 10 nM	33.4
CAL-85-1 [14], 100 nM	39.2
CAL-85-1 [30], 30 nM	34.9
CAL-85-1 [30], 300 nM	39.6
CAL-120 [12], 1000 nM	19.9
CAL-120 [12], 10000 nM	20.6
CAL-148, 30 nM	16.5
CAL-148, 300 nM	24.5
DU-4475 [23], 1 nM	102
DU-4475 [23], 10 nM	78.8
DU-4475 [31], 30 nM	36.9
DU-4475 [31], 300 nM	12
HCC1143, 10 nM	34.2
HCC1143, 100 nM	40.4
HCC1599 [15], 1000 nM	73.7
HCC1599 [15], 10000 nM	45.7
HCC1599 [24], 10 nM	93.5
HCC1599 [24], 100 nM	51.1
HCC1937 [16], 1000 nM	13.2
HCC1937 [16], 10000 nM	16.1
HCC1937 [25], 10 nM	33.6
HCC1937 [25], 100 nM	17.8
HDQ-P1 [26], 1 nM	109
HDQ-P1 [26], 10 nM	90.7
HDQ-P1 [32], 30 nM	33.5
HDQ-P1 [32], 300 nM	27.9
Hs578T [17], 1000 nM	12.7
Hs578T [17], 10000 nM	15.9
MDA-MB-231 [27], 10 nM	29.5
MDA-MB-231 [27], 100 nM	16.1
MDA-MB-436 [18], 1000 nM	30.2
MDA-MB-436 [18], 10000 nM	50.3
MDA-MB-453 [19], 10 nM	26.9
MDA-MB-453 [19], 100 nM	30.8
MDA-MB-453 [33], 30 nM	29.2
MDA-MB-453 [33], 300 nM	34.2
MDA-MB-468 [20], 1000 nM	41.1
MDA-MB-468 [20], 10000 nM	38.4
MDA-MB-468 [28], 10 nM	50.6
MDA-MB-468 [28], 100 nM	32.1

COc1ccc(-c2ccc3c(N4CCOC[C@@H]4C)nc(N4CCOC[C@@H]4C)nc3n2)cc1CO [AZD8055]
Conditions	EC50, CellTiter-Glo [nM]
BT-474 [1]	121
BT-549	30.8
CAL-51 [3]	45.4
CAL-85-1 [4]	31.8
CAL-120 [2]	37.5
HCC1937 [5]	100
Hs578T [6]	57.5
MCF-10A	61
MDA-MB-231 [7]	73.8
MDA-MB-436 [8]	11.6
MDA-MB-453 [9]	24.6
MDA-MB-468 [10]	43.3
SK-BR-3	7.23

Conditions	normalised viability [%]
BT-474 [11], 10000 nM	16.9
BT-474 [21], 100 nM	52.2
CAL-51 [13], 100 nM	27.3
CAL-51 [22], 10 nM	67.4
CAL-51 [29], 300 nM	16.9
CAL-85-1 [14], 100 nM	46.3
CAL-85-1 [30], 300 nM	28.8
CAL-120 [12], 10000 nM	9.25
CAL-148, 300 nM	10.4
DU-4475 [23], 10 nM	102
DU-4475 [31], 300 nM	29.8
HCC1143, 100 nM	55.8
HCC1599 [15], 10000 nM	43.4
HCC1599 [24], 100 nM	65.9
HCC1937 [16], 10000 nM	40.3
HCC1937 [25], 100 nM	42.6
HDQ-P1 [26], 10 nM	76.8
HDQ-P1 [32], 300 nM	26.9
Hs578T [17], 10000 nM	17.6
MDA-MB-231 [27], 100 nM	50
MDA-MB-436 [18], 10000 nM	40.1
MDA-MB-453 [19], 100 nM	21.1
MDA-MB-453 [33], 300 nM	15.7
MDA-MB-468 [20], 10000 nM	21.4
MDA-MB-468 [28], 100 nM	70

C/C(=C\c1csc(C)n1)[C@@H]1C[C@@H]2O[C@]2(C)CCC[C@H](C)[C@H](O)[C@@H](C)C(=O)C(C)(C)[C@@H](O)CC(=O)O1 [Patupilone]
Conditions	EC50, CellTiter-Glo [nM]
BT-474 [1]	219
BT-549	9.09
CAL-51 [3]	8.54
CAL-85-1 [4]	18.9
CAL-120 [2]	73.8
HCC1937 [5]	> 1000
Hs578T [6]	57.3
MCF-10A	57.4
MDA-MB-231 [7]	149
MDA-MB-436 [8]	14.9
MDA-MB-453 [9]	84.9
MDA-MB-468 [10]	7.53
SK-BR-3	38.9

Conditions	normalised viability [%]
BT-474 [11], 1000 nM	25.4
BT-474 [21], 10 nM	66.4
CAL-51 [13], 10 nM	59.1
CAL-51 [22], 1 nM	104
CAL-51 [29], 30 nM	28.8
CAL-85-1 [14], 10 nM	33.9
CAL-85-1 [30], 30 nM	27.2
CAL-120 [12], 1000 nM	23.4
CAL-148, 30 nM	19.6
DU-4475 [23], 1 nM	95.4
DU-4475 [31], 30 nM	18.5
HCC1143, 10 nM	66
HCC1599 [15], 1000 nM	79.3
HCC1599 [24], 10 nM	111
HCC1937 [16], 1000 nM	20.4
HCC1937 [25], 10 nM	25.5
HDQ-P1 [26], 1 nM	125
HDQ-P1 [32], 30 nM	48.4
Hs578T [17], 1000 nM	13.2
MDA-MB-231 [27], 10 nM	22.7
MDA-MB-436 [18], 1000 nM	40.1
MDA-MB-453 [19], 10 nM	47.3
MDA-MB-453 [33], 30 nM	24.8
MDA-MB-468 [20], 1000 nM	54.8
MDA-MB-468 [28], 10 nM	54.4
